Experimental data published in PMC9147192, “Small Molecule Arranged Thermal Proximity Coaggregation (smarTPCA)—A Novel Approach to Characterize Protein–Protein Interactions in Living Cells by Similar Isothermal Dose–Responses” (International Journal of Molecular Sciences, 2022).

Key:
SMIM12 = target: T1, SMIM12 (Homo sapiens, UniProt Q96EX1); test: TPP-CCR in living HL-60 cells; assay type: cell-based
T1 construct: endogenous in cells; host or cells: HL-60 (ATCC CCL-240)
T1 sequence (Q96EX1 1-92): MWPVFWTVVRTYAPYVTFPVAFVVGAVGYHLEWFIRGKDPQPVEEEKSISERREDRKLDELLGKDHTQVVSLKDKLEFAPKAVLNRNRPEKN

VAPA = target: T2, VAPA (Homo sapiens, UniProt Q9P0L0); test: TPP-CCR in living HL-60 cells; assay type: cell-based
T2 construct: dose–responses (mean over replicates), derived from TPP-CCR experiments in living cells; endogenous in cells; host or cells: HL-60 cells (ATCC No. CCL-240)
T2 sequence (Q9P0L0 1-249): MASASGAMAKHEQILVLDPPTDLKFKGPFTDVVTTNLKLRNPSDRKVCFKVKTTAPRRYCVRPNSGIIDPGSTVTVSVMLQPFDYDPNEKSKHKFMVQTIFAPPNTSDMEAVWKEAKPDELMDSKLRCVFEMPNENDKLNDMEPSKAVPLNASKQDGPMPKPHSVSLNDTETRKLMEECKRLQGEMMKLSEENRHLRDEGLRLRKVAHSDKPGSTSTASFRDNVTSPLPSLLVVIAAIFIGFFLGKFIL

[1] = living HL-60 cells, […] °C, TMT-MS

Cc1cnc(Nc2ccc(F)cc2Cl)nc1-c1c[nH]c(C(=O)N[C@H](CO)c2cccc(Cl)c2)c1 [ERK 11e]
Hill slope (SMIM12; TPP-CCR, living cells, SMIM12): 0.47
Hill slope (SMIM12) (SMIM12; [1]): 0.47
EC50 (SMIM12; living HL-60 cells, […] °C, TMT-MS, read-out: pEC50 (SMIM12) (converted)): 427 nM
Hill slope (VAPA; TPP-CCR, living cells, VAPA): 0.66
EC50 (VAPA; [1]): 1550 nM
Hill slope (VAPA) (VAPA; [1]): 0.66
